Patent US8741867B2, “Retinoid-liposomes for treating fibrosis” (Nitto Denko Corporation, priority 2011, dated 2014)
Read-outs that look alike come from different tables or passages of the source. d = 2'-deoxy (DNA); r = 2'-OH (RNA)

Experiments:
293_HSP47-GFP cell line [1] = test system: 293_HSP47-GFP cell line
Experimental: (§2) Cells treated with or without siNA were measured for viability after 72 hours incubation using CellTiter-Glo Luminescent Cell Viability Assay Kit according to the manual (Promega). The readings were normalized to samples treated with scrambled siNA molecules.
(§3) The 293_HSP47-GFP and 293_GP46-GFP cell lines treated with siRNA against hsp47 and gp46 were evaluated for viability using the methods described in Example 2. The cell viability was normalized to cells treated with scrambled siRNA (Ambion).

293_GP46-GFP cell line = assay type: cell-based, human
Experimental: as §2, §3

human HSP47 = test: Inhibitory efficiency of siHsp47 in 293_HSP47-GFP reporter cell line (GFP fluorescence); assay type: cell-based; conditions: 293_HSP47-GFP cell line, normalized to scrambled siRNA
Description: (§1) The fluorescent signals were normalized to fluorescent signals from cells treated with scrambled siRNA (Ambion) which served as a control.

hsp47 mRNA = test: siHsp47 inhibitory effect on hsp47 mRNA by TaqMan qPCR in hTERT cells; assay type: cell-based, human; conditions: 72 hours after transfection, normalized to GAPDH
Experimental: In Example 14, the knock down efficiency of siHsp47s in reporter cell lines was evaluated by change in fluorescent signal. To validate the results at the mRNA level, siRNAs targeting endogenous hsp47 were transfected into cells of the human HSC cell line hTERT using Lipofectamine RNAiMAX (Invitrogen) in a reverse transfection manner as described in Example 13
The hsp47 mRNA level was evaluated for knock down efficiency of the various tested siHsp47 siNA molecules. Briefly, mRNA were isolated from hTERT cells after 72 hours after transfection using an RNeasy mini kit (Qiagen). The level of hsp47 mRNA was determined by reverse transcription coupled with quantitative PCR using TaqMan® probes. Briefly, cDNA synthesis was carried out using High-Capacity cDNA Reverse Transcription Kit (ABI) according to the manufacturer's instruction, and subjected to TaqMan Gene Expression Assay (ABI, hsp47). The level of hsp47 mRNA was normalized to the level of GAPDH mRNA according to the manufacturer's instruction (ABI).

HSP47 protein = test: siHsp47 knock down effect at the protein level in hTERT cells (western blot); assay type: cell-based, human; conditions: hTERT cell lysate
Experimental: The inhibitory effect of different Hsp47 siNA molecules (siHsp47) on hsp47 mRNA expression were validated at the protein level by measuring the HSP47 in hTERT cells transfected with different siHsp47. Transfection of hTERT cells with different siHsp47 were performed as described in Example 13. Transfected hTERT cells were lysed and the cell lysate were clarified by centrifugation. Proteins in the clarified cell lysate were resolved by SDS polyacrylamide gel electrophoresis. The level of HSP47 protein in the cell lysate were determined using an anti-HSP47 antibody (Assay Designs) as the primary antibody, Goat anti-mouse IgG conjugated with HRP (Millipore) as the secondary antibody, and subsequently detected by Supersignal West Pico Chemiluminescence kit (Pierce). Anti-actin antibody (Abcam) was used as a protein loading control.

collagen I mRNA = test: Downregulation of collagen I expression by hsp47 siRNA in hTERT cells (TaqMan qPCR); assay type: cell-based, human; conditions: 72 hours, normalized to GAPDH and scrambled siNA
Experimental: To determine the effect of siHsp47 on collagen I expression level, collagen I mRNA level in hTERT cells treated with different siRNA against hsp47 was measured. Briefly, hTERT cells were transfected with different siHsp47 as described in Example 13. The cells were lysed after 72 hours and mRNA were isolated using RNeasy mini kit according to the manual (Qiagen). The level of collagen 1 mRNA was determined by reverse transcription coupled with quantitative PCR using TaqMan® probes. Briefly, cDNA synthesis was carried out using High-Capacity cDNA Reverse Transcription Kit (ABI) according to the manual, and subjected to TaqMan Gene Expression Assay (ABI, COL 1A1 assay). The level of collagen I mRNA was normalized to the level of GAPDH mRNA according to the manufacturer's instruction (ABI). The signals were normalized to the signal obtained from cells transfected with scrambled siNA.

rat gp46 [2] = test: Inhibitory efficiency of siHsp47 in 293_GP46-GFP reporter cell line (GFP fluorescence); assay type: cell-based; conditions: 293_GP46-GFP cell line, normalized to scrambled siRNA
Description: as §1

293_HSP47-GFP cell line [3] = test: Cell viability of 293_HSP47-GFP cells treated with siNA (CellTiter-Glo); conditions: normalized to scrambled siRNA
Experimental: as §2, §3

[4] = test system: rat fibroblasts (NRK cells); test: Inhibition of collagen synthesis by siRNA (3H-proline, collagenase-sensitive fraction); assay type: cell-based; conditions: siRNA 50 nM, 48 hours, compared with control group
Experimental: In order to examine the amount of collagen synthesized, ^3H-proline was added to the culture supernatant of rat fibroblasts (NRK cells) under the above-mentioned conditions (siRNA concentration 50 nM, time 48 hours), and after transfection the amount of ^3H in secreted protein was examined (FIG. 5). The amount of collagen synthesized was calculated from the ratio of protein secreted in the supernatant to protein degraded by collagenase when culturing gp46siRNA-transfected fibroblasts in the presence of ^3H-proline in accordance with Peterkofsky et al., 1971 Biochemistry 10:988-94. Collagen synthesis ratio=collagenase−sensitive fraction×100(5.4×collagenase−insensitive fraction+collagenase−sensitive fraction)
The collagen synthesis ratio in rat fibroblasts decreased by about 40% compared with a control group (FIG. 6).

rat gp46 [5] = test: Inhibition of gp46 expression by prepared siRNA in NRK cells (western blot); assay type: cell-based
Experimental: Normal rat kidney cells (NRK cells), which had rat gp46 and were fibroblasts producing collagen, were transfected with 0.1 nM to 50 nM siRNA and cultured for 12 to 48 hours (FIG. 1). The amount of expression of gp46 was checked by the western blot method (FIGS. 2 to 4, upper band corresponding to gp46, lower band corresponding to actin control). All of the siRNAs inhibited the expression of gp46 protein remarkably compared with a vehicle (FIG. 2).

| Substance | cell viability / cytotoxicity (293_HSP47-GFP cell line [1]) | cell viability / cytotoxicity (293_GP46-GFP cell line) | knockdown of human HSP47 (GFP fluorescent signal) (human HSP47) | knock down of hsp47 mRNA (remaining mRNA level) (hsp47 mRNA) | level of Hsp47 protein (HSP47 protein) | collagen I mRNA level (collagen I mRNA) | knockdown of rat GP46 (GFP fluorescent signal) (rat gp46 [2]) | cell viability / cytotoxicity (293_HSP47-GFP cell line [3]) | further results |
| --- | --- | --- | --- | --- | --- | --- | --- | --- | --- |
| siHsp47-2d: siRNA to human hsp47 cDNA 469-493, 25-mer duplex; sense GAGCACUCCAAGAUCAACUUCCGdCdG (SEQ ID NO 25/26) (sense GAGCACUCCAAGAUCAACUUCCGCG; antisense GCGGAAGUUGAUCUUGGAGUGCUCUU; sense: sugars from the 5' end r23 d2, backbone not given here; antisense: chemistry not given here) | without substantial cytotoxicity | without substantial cytotoxicity | efficiently knockdown | next most effective | significant decrease | significantly reduced | efficiently knockdown | – | – |
| siHsp47-6: siRNA to human hsp47 cDNA 446-464, 19-mer duplex; SEQ ID NO 53/54 (chain 1 GCAGCAAGCAGCACUACAAUU; chain 2 UUGUAGUGCUGCUUGCUGCUU; chemistry not fully specified) | – | – | – | – | – | – | – | lower | – |
| Sequence A: siRNA for rat gp46, GUUCCACCAUAAGAUGGUAGACAAC (SEQ ID NO: 2728) (chemistry not given here) | – | – | – | – | – | – | – | – | decrease of collagen synthesis ratio [4]: about 40%; inhibition of gp46 expression, dependence on concentration (rat gp46 [5]; 0.1 nM to 50 nM siRNA): concentration dependent; inhibition of gp46 protein expression (rat gp46 [5]; 50 nM siRNA, 48 hours): about 90%; expression of gp46 protein (western blot) (rat gp46 [5]; 24 hour culturing, examination of optimal sequence, compared with vehicle): strongest effect |
| siHsp47-C: siRNA to human and rat hsp47, 19mer duplex, dTdT overhangs; sense GGACAGGCCUCUACAACUAdTdT (SEQ ID NO 5/6) (sense GGACAGGCCUCUACAACUATT; antisense UAGUUGUAGAGGCCUGUCCTT; sugars from the 5' end r19 d2, backbone not given here) | without substantial cytotoxicity | without substantial cytotoxicity | efficiently knockdown | most effective | significant decrease | – | efficiently knockdown | – | – |
| Hsp47-7: siRNA to human hsp47 cDNA 692-710, 19-mer duplex; SEQ ID NO 57/58 (chain 1 CCGUGGGUGUCAUGAUGAUUU; chain 2 AUCAUCAUGACACCCACGGUU; chemistry not fully specified) | – | – | – | – | – | – | – | lower | – |
| siHsp47-2: siRNA to human hsp47 cDNA 469-487, 19-mer duplex; sense GAGCACUCCAAGAUCAACUdTdT (SEQ ID NO 21/22) (sense GAGCACUCCAAGAUCAACUTT; antisense AGUUGAUCUUGGAGUGCUCTT; sugars from the 5' end r19 d2, backbone not given here) | without substantial cytotoxicity | without substantial cytotoxicity | efficiently knockdown | next most effective | – | significantly reduced | efficiently knockdown | – | – |
